Source: ChEMBL document CHEMBL3044621, “1-(7-Chloroquinolin-4-yl)-2-[(1H-pyrrol-2-yl)methylene]hydrazine: a potent compound against cancer” (Med Chem Res, 2012)
≈ marks a conversion by molar mass, not a printed value.

What was measured:
[1] = tested on: HCT-8; experiment: Cytotoxicity against Homo sapiens (human) HCT8 cells assessed as growth inhibition at 25 ug/ml after 72 hr by MTT assay; type: functional; details: HCT-8, 72 h, read-out: GI
[2] = tested on: MDA-MB-435; experiment: Cytotoxicity against Homo sapiens (human) MDA-MB-435 cells assessed as growth inhibition at 25 ug/ml after 72 hr by MTT assay; type: functional; details: MDA-MB-435, 72 h, read-out: GI
[3] = tested on: SF-295; experiment: Cytotoxicity against Homo sapiens (human) SF295 cells assessed as growth inhibition at 25 ug/ml after 72 hr by MTT assay; type: functional; details: SF-295, 72 h, read-out: GI
[4] = tested on: MDA-MB-435; experiment: Cytotoxicity against Homo sapiens (human) MDA-MB-435 cells after 72 hr by MTT assay; type: functional, cell-based; details: MDA-MB-435, 72 h
[5] = tested on: MDA-MB-435; experiment: Ratio of doxorubicin IC50 to compound IC50 for Homo sapiens (human) MDA-MB-435 cells; type: functional
[6] = tested on: HL-60; experiment: Cytotoxicity against Homo sapiens (human) HL60 cells after 72 hr by MTT assay; type: functional, cell-based; details: HL-60, 72 h
[7] = tested on: HCT-8; experiment: Cytotoxicity against Homo sapiens (human) HCT8 cells after 72 hr by MTT assay; type: functional, cell-based; details: HCT-8, 72 h
[8] = tested on: SF-295; experiment: Cytotoxicity against Homo sapiens (human) SF295 cells after 72 hr by MTT assay; type: functional, cell-based; details: SF-295, 72 h

| SMILES | inhibition of growth at 25 µg/mL [1] [%] | inhibition of growth at 25 µg/mL [2] [%] | inhibition of growth at 25 µg/mL [3] [%] | IC50 [4] [µg/mL] | Ratio IC50 [5] | IC50 [6] [µg/mL] | IC50 [7] [µg/mL] | IC50 [8] [µg/mL] |
| --- | --- | --- | --- | --- | --- | --- | --- | --- |
| Clc1ccc2c(N/N=C/c3cccs3)ccnc2c1 | 21.1 | 21.6 | 1.03 |  |  |  |  |  |
| Clc1ccc2c(N/N=C/c3ncc[nH]3)ccnc2c1 | 34 | 82.6 | 30.2 |  |  |  |  |  |
| Clc1ccc2c(N/N=C/c3ccco3)ccnc2c1 | 53.2 | 68.5 | 61.9 |  |  |  |  |  |
| Clc1ccc2c(N/N=C/c3ccc[nH]3)ccnc2c1 | 100 | 100 | 100 | 0.117 (≈ 0.431 µM) | 4 | 0.0952 (≈ 0.352 µM) | 0.441 (≈ 1.63 µM) | 0.527 (≈ 1.95 µM) |
| O=[N+]([O-])c1ccc(/C=N/Nc2ccnc3cc(Cl)ccc23)s1 | 49 | 42.1 | 33.4 |  |  |  |  |  |
| O=[N+]([O-])c1ccc(/C=N/Nc2ccnc3cc(Cl)ccc23)o1 | 24.1 | 38 | 7.53 |  |  |  |  |  |
| COc1cccc2c1C(=O)c1c(O)c3c(c(O)c1C2=O)C[C@@](O)(C(=O)CO)C[C@@H]3O[C@H]1C[C@H](N)[C@H](O)[C@H](C)O1 [DOXORUBICIN] |  |  |  |  |  |  | 0.01 (≈ 0.0184 µM) |  |
